Laboratory results as given in patent US7470669B2, “Isolated polypeptide comprising a leptin fragment” (Serono Genetics Institute, S.A., priority 1999, dated 2008).

What was measured:
[1] = tested on: LSR; test: 125I-leptin degradation in PLC cells; type: cell-based, human; conditions: 50 μM
[2] = tested on: LSR; test: LSR activity (oleate-induced 125I-LDL binding, uptake, degradation) in primary cultures of rat hepatocytes; type: cell-based; conditions: rat hepatocytes; 50 μM
Protocol: FIGS. 6A, 6B, and 6C show the effect of leptin on ^125I-LDL and ^125I-chylomicron binding to LSR in primary cultures of rat hepatocytes. For FIG. 6A, primary cultures of rat hepatocytes (48 hours after plating) were incubated at 37° C. for 30 min in the absence (□) or presence (▪) of 50 ng/mL leptin in Buffer A, followed by a 20 min incubation at 37° C. with 0.5 mM oleate. The cells were then washed with ice-cold PBS, precooled for 10 min, and then incubated for 1 h at 4° C. with increasing concentrations of ^125I-LDL in Buffer A. Cells were washed, were lysed in 0.1 N NaOH and were counted for radioactivity. Results are shown as the mean of duplicate determinations. For FIG. 6B, primary cultures of rat hepatocytes were incubated at 37° C. for 30 min with or without 20 ng/mL leptin followed by incubation at 37° C. for 4 h with 6 μg protein/mL ^125I-chylomicrons in the absence or presence of 0.5 mM oleate in Buffer A. The cells were then washed and the ^125I-chylomicrons bound to the cell surface were released into the media by incubation with 10 mM suramin. The media was recovered and the radioactivity was measured. Results are shown as the mean±SD of six determinations. Fir FIG. 6C, after incubation at 37° C. for 30 min with 50 ng/mL leptin, the cells were incubated at room temperature for 30 min with 200 μg IgG/mL antibodies directed against rat LSR protein or irrelevant IgG. The amount of ^125I-chylomicrons bound was determined, and results are shown as means±SD of triplicate (irrelevant) or quadruplicate (anti-LSR) determinations.
(§1) FIGS. 7A and 7B show a comparison of the effect of human and mouse leptin on LSR activity in rat hepatocytes and on postprandial increase in plasma TG in db^Pas/db^Pas mice. For FIG. 7A, primary cultures of rat hepatocytes were incubated 30 min at 37° C. without (open bar) or with 10 ng/mL recombinant human (solid bar) or mouse (hatched bar) leptin in Buffer A. Oleate (0.5 mM) and ^125I-LDL (20 μg/mL) were added and the cells were incubated 2 h at 37° C. The media were removed and were analyzed for TCA-soluble degradation products. The mean of duplicate determinations is shown. For FIG. 7B, db^Pas/db^Pas mice were given a test meal as previously described, followed immediately by injection i.p. of saline (open bar, n=4), human leptin (1 μg/animal; solid bar, n=3) or mouse leptin (0.25 μg/animal; hatched bar; n=3). The data represent the difference in TG concentrations measured at t=0 and the average of the concentrations at 3 and 4 hours. Results are shown as mean±SEM.
Cells were incubated 30 min at 37° C. with increasing concentrations of mouse (▪) or human (●) leptin peptide. Following this, 0.5 mM oleate and 20 μg/mL ^125I-LDL were added and the cells were further incubated for 2 h at 37° C. The cells were washed, and the amount of oleate-induced ^125I-LDL bound and degraded was measured as described previously (Bihain, B. E., and Yen, F. T. (1992). Free fatty acids activate a high-affinity saturable pathway for degradation of low-density lipoproteins in fibroblasts from a subject homozygous for familial hypercholesterolemia. Biochemistry 31, 4628-4636).
FIGS. 11A and 11B show the effect of mouse leptin (FIG. 11A) or leptin peptide (FIG. 11B) on postprandial plasma TG response in ob/ob mice. […] Postprandial triglyceridemia was measured as described previously. Each point represents the mean±SEM (A: saline, n=8, leptin, n=7; leptin peptide: saline, n=8, leptin, n=8). […] Primary cultures of rat hepatocytes were incubated 30 min at 37° C. with increasing concentrations of mouse leptin peptide. Oleate (0.5 mM) and ^125I-LDL (20 μg/mL) were added and the cells were incubated 2 h at 37° C. After washing, the amount of 125I-LDL bound to the cell surface was measured as described in the Examples section herein. […]

[3] = tested on: LSR; test: LSR activity (oleate-induced 125I-LDL binding, uptake, degradation) in PLC cells; type: cell-based, human
Protocol: FIGS. 5A, 5B, 5C, and 5D show the stimulatory effect of leptin on LSR activity in PLC and suppression of this effect by 81B antibody. For FIGS. 5A, 5B, and 5C, cultured PLC cells were incubated at 37° C. for 30 min with increasing concentrations of human recombinant leptin in Buffer A. After this, 0.5 mM oleate and 20 μg/mL ^125I-LDL were added, and cells were further incubated at 37° C. for 2 h. Cells were washed, and the amount of oleate-induced ^125I-LDL bound (5A), internalized (5B) and degraded (5C) were measured. For FIG. 5D, PLC cells were incubated at room temperature for 30 min with 200 μg/mL anti-LSR peptide 81B or 170 antibody, followed by incubation at 37° C. for 30 min without (open bar) or with (hatched bar) 10 ng/mL human leptin. Oleate (0.5 mM) and ^125I-LDL (20 μg/mL) were added, and the monolayers were left at 37° C. for 3 h. After washing, the amount of ^125I-LDL binding was determined, and is shown here as the mean±SD of triplicate determinations.
FIGS. 8A and 8B show the effect of mouse or human leptin on LSR activity in primary cultures of rat hepatocytes or a human liver cell line (PLC). Primary cultured rat hepatocytes were obtained commercially (In Vitro Tech). The PLC cell line was obtained from ATCC repository and maintained in culture. Rat hepatocytes 72 h after plating (8A) or confluent monolayers of PLC (8B) were incubated 30 min at 37° C. with 0 (closed bar) or 10 ng/mL of human (open bar) or mouse (hatched bar) recombinant leptin. Following this, 0.5 mM oleate and 20 μg/mL ^125I-LDL were added and the cells were further incubated for 2 h at 37° C. […] The cells were washed, and the amount of oleate-induced ^125I-LDL bound and degraded was measured as described previously (Bihain, B. E., and Yen, F. T. (1992). Free fatty acids activate a high-affinity saturable pathway for degradation of low density lipoproteins infibroblasts from a subject homozygous for familial hypercholesterolemia. Biochemistry 31, 4628-4636.
FIGS. 35A and 35B show graphs of LSR activity and mRNA expression measured in PLC cells preincubated 24 h with leptin. In FIG. 35A, PLC monolayers were incubated 24 h at 37° C. with (o) or without (n) 200 ng/mL human recombinant leptin. After washing with PBS, cells were incubated 30 min at 37° C. with increasing concentrations of human leptin, followed by a 2 h incubation at 37° C. with 0.8 mM oleate and 20 μg/mL ^125I-LDL. Cells were washed, and the amount of oleate-induced ^125I-LDL binding was measured as described previously. Results are shown as the mean of triplicate determinations. In FIG. 35B, PLC monolayers were incubated 24 h at 37° C. with 0, 200, or 400 ng/mL human recombinant leptin. After washing with PBS, the cells were harvested. Total RNA was prepared from the cell pellets, and Northerns were performed to detect LSR mRNA, using GAPDH probe as loading control as described previously. Northern blots were scanned on the Phosphorimager (Molecular Dynamics, Sunnyvale, Calif.). Densitometric analysis of the images was performed using the software ImageQuant. Results are shown as the amount of LSR signal relative to that of GAPDH (mean±SD, n=3/condition). […]

[4] = tested on: db^Pas/db^Pas mice; test: Postprandial plasma TG response after high-fat test meal in db^Pas/db^Pas mice; type: in vivo, mouse; conditions: 1 μg/animal i.p.
Protocol: FIGS. 1A and 1B show the effect of leptin on postprandial plasma TG response in db/db and db^Pas/db^Pas mice. Overnight-fasted db/db (A), db^Pas/db^Pas (B) mice were gavage-fed a high-fat test meal and immediately injected intravenously (db/db) or intraperitoneally (db^Pas/db^Pas) with saline (open symbols) or 50 μg mouse recombinant leptin (closed symbols). At the indicated times, blood was collected from the tail (A) or orbital (B) vein, plasma was separated by centrifugation, and plasma TG concentrations were determined using an enzymatic kit. Each point represents the mean±SEM (db/db: saline, n=4, leptin, n=3; db^Pas/db^Pas: saline, n=6, leptin, n=7). The average plasma lipid response in 10 control C57BL6 mice is shown as a dotted line in both A and B. In a separate experiment, shown as an inset for each strain of mice, overnight fasted db/db (●) or db^Pas/db^Pas (▪) mice were gavage-fed the test meal and immediately injected intravenously with increasing concentrations of leptin. The plasma lipid response was then measured as in A and B. The area under the response curve (AUC) was then calculated using a triangulation method on Microsoft Excel between 0 and 4 hr (mg TG·h/mL). Values are presented as % of control value (test meal alone obtained in A or B). Each point represents the mean of at least 3 mice.
as §1
Mice that were fasted for 2-3 hours were gavage-fed 300 μL of a test meal consisting of 60% fat (37% saturated, 27% mono-, and 36% polyunsaturated fatty acids), 20% protein and 20% carbohydrate, and providing 56 kcal of energy/kg (1.5 g butter, 1.5 g sunflower oil, 2.5 g nonfat dry milk, 2.5 g sucrose and 3 ml water). […] TG concentrations were determined using a commercially available enzymatic kit with controls included in each assay (Precinorm L, Roche-Boehringer Mannheim; Lyotrol N, BioMérieux).

CCN(CC)CCCC(C)Nc1ccnc2cc(Cl)ccc12 (stereo not shown) [Chloroquine]
increase of the amount of cell-associated 125I-leptin [1]: 2-4 fold | inhibition of 125I-leptin degradation [1]: more than 60%

C=C1[C@@H](C)[C@H]2[C@H](Cc3ccccc3)NC(=O)[C@]23OC(=O)/C=C/[C@H](O)CCC[C@@H](C)C/C=C/[C@H]3[C@@H]1O [cytochalasin B, reference compound]
reduction of leptin stimulation of LSR activity [2]: more than 80%

C[C@@H]1C[C@@H]([C@H](O)CC2CC(=O)NC(=O)C2)C(=O)[C@@H](C)C1 [cycloheximide, reference compound]
effect on the stimulatory effect of leptin on LSR activity [2]: did not suppress the stimulatory effect of leptin

human leptin: commercial preparation of recombinant human leptin
stimulation of LSR activity in human PLC cells ([3]; 10 ng/mL recombinant leptin): more efficient | LSR activity after long-term exposure ([3]; human liver cells (PLC) preincubated 24 h with 200 ng/mL): markedly reduced LSR activity | postprandial plasma TG response [4]: slightly reduced
